Values after ≈ are worked out from the molar mass of the structure shown.

Among the data in ChEMBL document CHEMBL1146905, “Synthesis and evaluation of phenoxy acetic acid derivatives as [corrected] anti-mycobacterial agents” (2006) are Inhibition, MIC and inhibition values, retold here.

Format in all cases: functional
Test [1] has as its system Mycobacterium tuberculosis. Nature of the test: Antimycobacterial activity against Mycobacterium tuberculosis H37Rv by BACTEC-460 radiometric assay above 6.25 ug/ml.
The subject of test [2] is Mycobacterium tuberculosis. In words: Antimycobacterial activity against Mycobacterium tuberculosis H37Rv by BACTEC-460 radiometric assay.
Test [3] deals with Mycobacterium tuberculosis. In words: Antimycobacterial activity against Mycobacterium tuberculosis H37Rv by BACTEC-460 radiometric assay at 6.25 ug/ml.

For the molecule `COc1cc(C2=NN(C(=O)c3ccc([N+](=O)[O-])cc3)C3CCCC23)c(C)cc1OCC(=O)O` (stereo not drawn), the Inhibition (commonly how much of the control response was suppressed) in test [1] was found to be 26%. The MIC (commonly the smallest concentration in the dilution series that meets the test's criterion for growth inhibition) in test [2] is over 6.25 µg/mL.
The molecule `COc1cc(C2=NN(C(=O)c3ccc([N+](=O)[O-])cc3)C(c3ccc(O)cc3)C2)c(C)cc1OCC(=O)O` (stereo not drawn) gave an Inhibition in test [1] of 74%. Further, in test [2], the MIC was determined as 6.25 µg/mL (≈ 12.4 µM).
In the case of `COc1cc(C2=NN(C(=O)c3ccccc3)C3CCCC23)c(C)cc1OCC(=O)O` (stereo not drawn), the Inhibition in test [1] was determined as 24%. In test [2], this molecule registered an MIC of over 6.25 µg/mL.
For `COc1cc(C2=NN(C(=O)COc3ccc4ccccc4c3)C(Cc3ccccc3)C2)c(C)cc1OCC(=O)O` (stereo not drawn), at 6.25 µg/mL the inhibition in test [3] was 95%. This molecule registered an MIC in test [2] of 0.22 µg/mL (≈ 0.408 µM).
For `COc1cc(C2=NN(C(=O)c3ccc([N+](=O)[O-])cc3)C(Cc3ccccc3)C2)c(C)cc1OCC(=O)O` (stereo not drawn), in test [1], the Inhibition came to 64%. Further, the MIC in test [2] was over 6.25 µg/mL.
`COc1cc(C2=NN(C(=O)Cc3ccccc3)C3CCCC23)c(C)cc1OCC(=O)O` (stereo not drawn) returned an Inhibition in test [1] of 21%. Besides, the MIC in test [2] was over 6.25 µg/mL.
As for `COc1cc(C2=NN(C(=O)COc3cccc4ccccc34)C3CCCC23)c(C)cc1OCC(=O)O` (stereo not drawn), in test [1], the Inhibition is on record as 54%. The molecule further showed an MIC in test [2] of over 6.25 µg/mL.
For `COc1cc(C2=NN(C(=O)COc3cccc4ccccc34)C(c3ccc(O)cc3)C2)c(C)cc1OCC(=O)O` (stereo not drawn), the Inhibition in test [1] turned out to be 61%. Also, in test [2], the MIC is over 6.25 µg/mL.
For the molecule `COc1cc(C2=NN(C(=O)COc3ccccc3)C(c3ccc(O)cc3)C2)c(C)cc1OCC(=O)O` (stereo not drawn), 6.25 µg/mL produced 99% inhibition in test [3]. The same molecule showed an MIC in test [2] of 0.1 µg/mL (≈ 0.204 µM).
On the same counts, the results for `COc1cc(C2=NN(C(=O)COc3ccccc3)C(Cc3ccccc3)C2)c(C)cc1OCC(=O)O` (stereo not drawn) are 94% and over 6.25 µg/mL.
The molecule `COc1cc(C2=NN(C(=O)Cc3ccccc3)C(Cc3ccccc3)C2)c(C)cc1OCC(=O)O` (stereo not drawn) came in with an Inhibition in test [1] of 34%. In test [2], the MIC was over 6.25 µg/mL.
In test [1], `COc1cc(C2=NN(C(=O)COc3ccc4ccccc4c3)C3CCCC23)c(C)cc1OCC(=O)O` (stereo not drawn) returned an Inhibition of 91%. Also, the MIC in test [2] came to 6.12 µg/mL (≈ 12.5 µM).
For the molecule `COc1cc(C2=NN(C(=O)COc3ccc4ccccc4c3)C(c3ccc(O)cc3)C2)c(C)cc1OCC(=O)O` (stereo not drawn), testing at 6.25 µg/mL in test [3] gave an inhibition of 99%. In addition, the MIC in test [2] turned out to be 0.1 µg/mL (≈ 0.185 µM).
For `COc1cc(C2=NN(C(=O)c3ccccc3)C(c3ccc(O)cc3)C2)c(C)cc1OCC(=O)O` (stereo not drawn), the Inhibition in test [1] stood at 72%. In test [2], this molecule registered an MIC of over 6.25 µg/mL.
`COc1cc(C2=NN(C(=O)COc3cccc4ccccc34)C(Cc3ccccc3)C2)c(C)cc1OCC(=O)O` (stereo not drawn) displayed an Inhibition in test [1] of 18%. Further, in test [2], the minimal inhibitory concentration (MIC) was over 6.25 µg/mL.
In turn, `COc1cc(C2=NN(C(=O)Cc3ccccc3)C(c3ccc(O)cc3)C2)c(C)cc1OCC(=O)O` (stereo not drawn) came in with an Inhibition in test [1] of 28%. In addition, the MIC in test [2] is over 6.25 µg/mL.
In test [1], `COc1cc(C2=NN(C(=O)c3ccccc3)C(Cc3ccccc3)C2)c(C)cc1OCC(=O)O` (stereo not drawn) displayed an Inhibition of 12%. The molecule further displayed an MIC in test [2] of over 6.25 µg/mL.
On the same counts, the results for `COc1cc(C2=NN(C(=O)COc3ccccc3)C3CCCC23)c(C)cc1OCC(=O)O` (stereo not drawn) are 87% and over 6.25 µg/mL.
On to `NNC(=O)c1ccncc1` [ISONIAZID], for which the inhibition (as a rule, how much of the control response was suppressed) at 6.25 µg/mL in test [3] was determined as 96%. In test [2], this molecule came in with an MIC of 0.1 µg/mL (≈ 0.729 µM).
